Assay results taken from ChEMBL document CHEMBL2429833, “A new class of bactericidal agents against S. aureus, MRSA and VRE derived from bisindolylmethane” (Med Chem Res, 2013).
In brackets after ≈: the same amount, converted by molar mass. Activity calls are given as the source filed them. No cut-off for these calls is given here.

Experiments:
Enterococcus faecalis [1] = test: Antibacterial activity against vancomycin-resistant Enterococcus faecalis after 24 hrs by microdilution method; assay type: functional
Staphylococcus aureus [2] = test: Antibacterial activity against methicillin-resistant Staphylococcus aureus after 24 hrs by microdilution method; assay type: functional
Staphylococcus aureus [3] = test: Antibacterial activity against Staphylococcus aureus ATCC 29213 after 24 hrs by microdilution method; assay type: functional; conditions: ATCC 29213, 24 h
A549 = test: Cytotoxicity against human A549 cells after 48 hrs by MTT assay; assay type: functional, cell-based
HeLa = test: Cytotoxicity against human HeLa cells after 48 hrs by MTT assay; assay type: functional, cell-based
PC-3 = test: Cytotoxicity against human PC3 cells after 48 hrs by MTT assay; assay type: functional, cell-based
Enterococcus faecalis [4] = test: Bactericidal activity against vancomycin-resistant Enterococcus faecalis after 24 hrs; assay type: functional
Staphylococcus aureus [5] = test: Bactericidal activity against methicillin-resistant Staphylococcus aureus after 24 hrs; assay type: functional
Staphylococcus aureus [6] = test: Bactericidal activity against Staphylococcus aureus ATCC 29213 after 24 hrs; assay type: functional; conditions: ATCC 29213, 24 h
Pseudomonas aeruginosa = test: Antibacterial activity against Pseudomonas aeruginosa ATCC 27853 after 24 hrs by microdilution method; assay type: functional, organism-based
Escherichia coli = test: Antibacterial activity against Escherichia coli ATCC 25922 after 24 hrs by microdilution method; assay type: functional, organism-based

Row | SMILES | MIC (Enterococcus faecalis [1]) | MIC (Staphylococcus aureus [2]) | MIC (Staphylococcus aureus [3]) | IC50 (A549) | IC50 (HeLa) | IC50 (PC-3) | MBC (Enterococcus faecalis [4]) | MBC (Staphylococcus aureus [5]) | MBC (Staphylococcus aureus [6]) | Activity (Pseudomonas aeruginosa) | Activity (Escherichia coli)
1 | COc1ccc(S(=O)(=O)n2cc(C(c3ccc(F)cc3)c3cn(S(=O)(=O)c4ccc(OC)cc4)c4ccc(Br)cc34)c3cc(Br)ccc32)cc1 | > 128 µg/mL | > 128 µg/mL | > 128 µg/mL | > 100 µM | > 100 µM | > 100 µM |  |  |  |  | 
2 | O=C(O)c1cn(C2CC2)c2cc(N3CCNCC3)c(F)cc2c1=O [CIPROFLOXACIN] | 64 µg/mL (≈ 193 µM) |  | 0.25 µg/mL (≈ 0.754 µM) |  |  |  | 64 µg/mL (≈ 193 µM) | 32 µg/mL (≈ 96.6 µM) | 0.5 µg/mL (≈ 1.51 µM) |  | 
3 | Brc1ccc2[nH]cc(C(c3ccc4ccccc4c3)c3c[nH]c4ccc(Br)cc34)c2c1 | 32 µg/mL (≈ 60.3 µM) | 32 µg/mL (≈ 60.3 µM) | 16 µg/mL (≈ 30.2 µM) |  |  |  | 32 µg/mL (≈ 60.3 µM) | 32 µg/mL (≈ 60.3 µM) | 16 µg/mL (≈ 30.2 µM) | inactive | inactive
4 | N#Cc1ccc2[nH]cc(C(c3ccc(O)cc3)c3c[nH]c4ccc(C#N)cc34)c2c1 | > 256 µg/mL | > 256 µg/mL | > 256 µg/mL |  |  |  |  |  |  | inactive | inactive
5 | O=[N+]([O-])c1ccc2[nH]cc(C(c3ccc(O)cc3)c3c[nH]c4ccc([N+](=O)[O-])cc34)c2c1 | 2 µg/mL (≈ 4.67 µM) | 1 µg/mL (≈ 2.33 µM) | 1 µg/mL (≈ 2.33 µM) |  |  |  | 2 µg/mL (≈ 4.67 µM) | 1 µg/mL (≈ 2.33 µM) | 1 µg/mL (≈ 2.33 µM) | inactive | inactive
6 | O=[N+]([O-])c1ccc2[nH]cc(C(c3ccc(F)cc3)c3c[nH]c4ccc([N+](=O)[O-])cc34)c2c1 | > 256 µg/mL | > 256 µg/mL | > 256 µg/mL |  |  |  |  |  |  | inactive | inactive
7 | CCCCCCCC(c1c[nH]c2ccc(Br)cc12)c1c[nH]c2ccc(Br)cc12 | > 256 µg/mL | > 256 µg/mL | > 256 µg/mL |  |  |  |  |  |  | inactive | inactive
8 | CCCCCCCCn1cc(C(c2ccc(F)cc2)c2cn(CCCCCCCC)c3ccc(Br)cc23)c2cc(Br)ccc21 | > 128 µg/mL | > 128 µg/mL | > 128 µg/mL | 38.7 µM | 32.4 µM | 44.9 µM |  |  |  |  | 
9 | COc1cccc(C(c2c[nH]c3ccc(Br)cc23)c2c[nH]c3ccc(Br)cc23)c1OC | > 256 µg/mL | 256 µg/mL (≈ 474 µM) | 256 µg/mL (≈ 474 µM) |  |  |  |  |  |  | inactive | inactive
10 | c1ccc(C(c2c[nH]c3ccccc23)c2c[nH]c3ccccc23)cc1 | > 256 µg/mL | > 256 µg/mL | > 256 µg/mL |  |  |  |  |  |  | inactive | inactive
11 | O=S(=O)(c1ccc(F)cc1)n1cc(C(c2ccc(F)cc2)c2cn(S(=O)(=O)c3ccc(F)cc3)c3ccc(Br)cc23)c2cc(Br)ccc21 | > 128 µg/mL | > 128 µg/mL | > 128 µg/mL | > 100 µM | > 100 µM | > 100 µM |  |  |  |  | 
12 | Fc1ccc(C(c2cn(Cc3ccccc3)c3ccc(Br)cc23)c2cn(Cc3ccccc3)c3ccc(Br)cc23)cc1 | > 128 µg/mL | > 128 µg/mL | > 128 µg/mL | 28.2 µM | 28.3 µM | 43.1 µM |  |  |  |  | 
13 | Fc1ccc(C(c2cn(Cc3ccc(Br)cc3)c3ccc(Br)cc23)c2cn(Cc3ccc(Br)cc3)c3ccc(Br)cc23)cc1 | > 128 µg/mL | > 128 µg/mL | > 128 µg/mL | 24.7 µM | 49 µM | 43.7 µM |  |  |  |  | 
14 | N#Cc1ccc2[nH]cc(C(c3ccc(F)cc3)c3c[nH]c4ccc(C#N)cc34)c2c1 | 8 µg/mL (≈ 20.5 µM) | 1 µg/mL (≈ 2.56 µM) | 1 µg/mL (≈ 2.56 µM) |  |  |  | 8 µg/mL (≈ 20.5 µM) | 1 µg/mL (≈ 2.56 µM) | 1 µg/mL (≈ 2.56 µM) | inactive | inactive
15 | Clc1ccc(C(c2c[nH]c3ccc(Br)cc23)c2c[nH]c3ccc(Br)cc23)cc1 | 8 µg/mL (≈ 15.5 µM) | 8 µg/mL (≈ 15.5 µM) | 4 µg/mL (≈ 7.77 µM) |  |  |  | 8 µg/mL (≈ 15.5 µM) | 8 µg/mL (≈ 15.5 µM) | 4 µg/mL (≈ 7.77 µM) | inactive | inactive
16 | Oc1ccc(C(c2c[nH]c3ccc(Br)cc23)c2c[nH]c3ccc(Br)cc23)cc1 | 2 µg/mL (≈ 4.03 µM) | 1 µg/mL (≈ 2.02 µM) | 0.5 µg/mL (≈ 1.01 µM) |  |  |  | 2 µg/mL (≈ 4.03 µM) | 1 µg/mL (≈ 2.02 µM) | 0.5 µg/mL (≈ 1.01 µM) | inactive | inactive
17 | COc1ccc(C(c2c[nH]c3ccc(Br)cc23)c2c[nH]c3ccc(Br)cc23)cc1 | 32 µg/mL (≈ 62.7 µM) | 32 µg/mL (≈ 62.7 µM) | 16 µg/mL (≈ 31.4 µM) |  |  |  | 32 µg/mL (≈ 62.7 µM) | 32 µg/mL (≈ 62.7 µM) | 32 µg/mL (≈ 62.7 µM) | inactive | inactive
18 | COc1ccc(Br)cc1C(c1c[nH]c2ccc(Br)cc12)c1c[nH]c2ccc(Br)cc12 | 256 µg/mL (≈ 435 µM) | 256 µg/mL (≈ 435 µM) | 128 µg/mL (≈ 217 µM) |  |  |  |  |  |  | inactive | inactive
19 | CC(c1ccccc1)(c1c[nH]c2ccc(Br)cc12)c1c[nH]c2ccc(Br)cc12 | > 256 µg/mL | > 256 µg/mL | > 256 µg/mL |  |  |  |  |  |  | inactive | inactive
